According to patent US9513299B2, “Methods for the detection and diagnosis of malaria using an electrochemical sensor” (EMPIRE TECHNOLOGY DEVELOPMENT LLC, priority 2010, dated 2016):
“Also recorded” adds a separate entry of the source.

Assays:
Type in all cases: biochemical
[1] = target: T1, human hemoglobin (HbA0) (Homo sapiens, UniProt P68871+P69905); assay: Peroxidase (electrocatalytic) activity of hemoglobin immobilized on nickel coated electrode, cyclic voltammetry with H2O2; details: for peroxidase activity of immobilized HbA0: IHP 150 μM or 2,3-DPG 2 mM, versus hemoglobin control (FIG. 5); for peroxidase activity of immobilized HbA0 / Electrocatalytic Activity in Healthy HbA0: 85 mM H2O2; for Electrocatalytic Activity in Healthy HbA0: change after adding modulator, IHP 150 μM, 2,3-DPG 2 mM
T1 construct: purchased Sigma chemicals H-267
Experimental: Crystal ferrous human hemoglobin (HbA0) was obtained from Sigma chemicals (H-267). The stock solution was prepared by dissolving 5 mg HbA0 in one milliliter of 0.05 M phosphate buffered saline (pH 7.2) (Sigma chemicals).
For the electrochemical experiments we used a computer controlled Autolab (PGSTAT) modular electrochemical system (Eco Chemie Ultecht, The Netherlands) that was operated with GPES software (Eco Chemie). All experiments were performed in a conventional three-electrode system cell with an Ag/AgCl reference electrode (BAST), a Pt wire as counter electrode, and a nickel coated chip as working electrode at ambient room temperature (21° C.).
Cyclic voltammetry was used for the immobilization of hemoglobin onto nickel coated electrodes following a similar approach as Salimi et al. To immobilize hemoglobin on the electrode surface, the electrodes were immersed in fresh 0.05 M phosphate buffer solution (pH 7.2) containing 5 mg ml-1 hemoglobin and the potential was repetitively cycled (30 scans) from 1 to −0.5 V vs. Ag/AgCI at a scan rate of 100 mV s^−1. After immobilization, the chips were washed thoroughly with phosphate buffer and subsequently subjected to cyclovoltammetric measurements in the presence of 0-8 M urea.
After hemoglobin immobilization the chips were incubated in presence of 0-8 M urea for 30 min. Hydrogen peroxide (85 mM) was added to monitor the peroxidase activity change for the unfolded protein. All the experiments were performed with the setup described for electrochemical measurements. The potential was repetitively cycled (3 scans) from −0.5 to 0.5 V vs. Ag/AgCI at a scan rate of 100 mV s^−1. In a control experiment the same electrochemical measurements were performed on a reference chip without immobilized hemoglobin.
In a control experiment, after the immobilization of hemoglobin on the chip, the tetramer dimer equilibrium was shifted towards dimer by inositol hexaphosphate at a final concentration of 150 μM and electrochemical measurements were performed. The potential was repetitively cycled (3 scans) from −0.5 to 0.5 V vs. Ag/AgCI at a scan rate of 100 mV s^−1 as described before. The peroxidase activity of hemoglobin was also measured under this condition by adding 85 mM hydrogen peroxide. In another control experiment, the same electrochemical and peroxidase activity measurements were performed on immobilized hemoglobin in presence of the tetramer stabilizer 2,3-DPG at a final concentration of 2 mM.

[2] = target: T2, hemoglobin samples from malaria patients (Malaria-Infected HbA0) (Homo sapiens, UniProt P68871+P69905); assay: Electrocatalytic activity of immobilized hemoglobin from whole blood in the presence of allosteric modulators (Example 4); details: change after adding modulator; IHP 150 μM, 2,3-DPG 2 mM; 85 mM H2O2
T2 construct: Hemoglobin from whole blood of test subjects is immobilized to the surface of electrodes; from tissue; host or cells: whole blood of malaria patients
Experimental: (§1) The assay of this example is illustrated in FIG. 8. Hemoglobin from whole blood of test subjects is immobilized to the surface of electrodes in two separate reaction cells as described in Example 1. Hydrogen peroxide at a final concentration of 85 mM is added in PBS to monitor the electrocatalytic activity for the immobilized protein. All the experiments are performed with the setup described above. The potential is repetitively cycled (3 scans) from −0.5 to 0.5 V vs. Ag/AgCl at a scan rate of 100 mV s^−1. This device is linked to a computer to record the current.
(§2) Next, inositol hexaphosphate (IHP) is added to one of the reaction cells at a final concentration of 150 μM. IHP is used to shift the tetramer/dimer equilibrium completely towards dimer. The effects are visualized through electrochemical measurements when the potential is repetitively cycled (3 scans) from −0.5 to 0.5 V vs. Ag/AgCl at a scan rate of 100 mV s^−1.
(§3) 2,3 diphosphoglycerate (2,3-DPG) is added to the second reaction cell at a final concentration of 2 mM. The stabilization of the immobilized HbA0 by 2,3-DPG, will result in higher electrocatalytic activity than normal due to the presence of more tetrameric protein molecules.

[3] = target: T3, hemoglobin samples from healthy subjects (Homo sapiens, UniProt P68871+P69905); assay: as above; details: after addition of IHP 150 μM or 2,3-DPG 2 mM; 85 mM H2O2
T3 construct: Hemoglobin from whole blood of test subjects is immobilized to the surface of electrodes; from tissue; host or cells: whole blood of healthy subjects
Experimental: as §1, §2, §3

T2 sequence (P69905 2-142): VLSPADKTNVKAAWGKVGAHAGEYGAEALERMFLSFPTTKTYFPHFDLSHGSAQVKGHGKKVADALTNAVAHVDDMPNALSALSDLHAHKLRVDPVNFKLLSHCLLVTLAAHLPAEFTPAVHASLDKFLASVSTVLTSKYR
T2 sequence (P68871 2-147): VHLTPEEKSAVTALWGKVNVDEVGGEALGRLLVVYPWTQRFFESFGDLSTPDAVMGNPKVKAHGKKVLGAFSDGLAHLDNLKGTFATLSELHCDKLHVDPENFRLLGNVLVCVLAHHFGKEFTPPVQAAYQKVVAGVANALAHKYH
T1 sequence (P69905 2-142 limits assumed): as the sequence (P69905 2-142) above
T1 sequence (P68871 2-147 limits assumed): as the sequence (P68871 2-147) above
T3 sequence (P69905 2-142 limits assumed): as the sequence (P69905 2-142) above
T3 sequence (P68871 2-147 limits assumed): as the sequence (P68871 2-147) above

SMILES	peroxidase activity of immobilized HbA0 [1]	Electrocatalytic Activity in Healthy HbA0 [1]	Electrocatalytic Activity in Malaria-Infected HbA0 [2]	current measured at the electrode surface, hemoglobin samples from healthy subjects [3]	electrochemical current (peroxidase activity of hemoglobin immobilized chip) ([1]; 0-8 M urea, 30 min incubation, 85 mM H2O2 (FIG. 4))
O=C(O)C(COP(=O)(O)O)OP(=O)(O)O (stereo not drawn) [2,3-DPG, 2,3-diphosphoglycerate]	increased	Increase	not be a significant change; also recorded: No change	increase	–
O=P(O)(O)O[C@H]1[C@H](OP(=O)(O)O)[C@@H](OP(=O)(O)O)[C@H](OP(=O)(O)O)[C@@H](OP(=O)(O)O)[C@H]1OP(=O)(O)O [IHP, inositol hexaphosphate]	decrease	Decrease	not be a significant change; also recorded: No change	decrease	–
NC(N)=O [urea]	–	–	–	–	decrease
